These results are taken from patent US8722849B2, “Polypeptides” (Novo Nordisk A/S, priority 2011, dated 2014).

This data set is described as follows: Assay (III) ThT fibrillation assay for physical stability. The format is physicochemical. The essentials: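 Freshly prepared formulations, pH-adjusted, with 1 μM ThT; four or eight replicates incubated at 37 °C under 960 rpm orbital shaking. Fluorescence (ex 444/em 485 nm) read every 20 min; […]. Peptide concentration measured by RP-HPLC before and after the run.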

Starred links: 1 amine or outer side, 2 acyl side, 3 side chain; linkers in the order of their positions; H or OH if unused. Positions of bridges follow the written chain, without caps; N, C: chain ends. Residues, ends and D or L forms follow the SMILES beside them. *: point of attachment. C20 diacid = O=C(O)CCCCCCCCCCCCCCCCCCC(=O)*; C18 diacid = O=C(O)CCCCCCCCCCCCCCCCC(=O)*; γGlu = O=C(O)[C@H](CCC(=O)[*:2])N[*:1]

On to `CC[C@H](C)[C@H](NC(=O)[C@@H]1CCCN1C(=O)CNC(=O)[C@H](Cc1ccccc1)NC(=O)[C@H](CC(N)=O)NC(=O)[C@H](CC(N)=O)NC(=O)[C@H](CO)NC(=O)[C@H](CO)NC(=O)[C@H](Cc1c[nH]cn1)NC(=O)[C@H](Cc1c[nH]cn1)NC(=O)[C@H](CC(C)C)NC(=O)[C@H](Cc1ccccc1)NC(=O)[C@H](CCC(=O)O)NC(=O)[C@H](C)NC(=O)[C@H](CC(C)C)NC(=O)[C@H](CCCNC(=N)N)NC(=O)[C@H](CCC(N)=O)NC(=O)[C@@H](NC(=O)[C@H](C)NC(=O)[C@@H]1CSSC[C@H](NC(=O)[C@H](Cc2c[nH]cn2)NC(=O)[C@H](Cc2c[nH]cn2)NC(=O)[C@H](Cc2c[nH]cn2)NC(=O)CC[C@H](NC(=O)CCCCCCCCCCCCCCCCCCC(=O)O)C(=O)O)C(=O)N[C@@H](CC(N)=O)C(=O)N[C@@H]([C@@H](C)O)C(=O)N[C@@H](C)C(=O)N[C@@H]([C@@H](C)O)C(=O)N1)[C@@H](C)O)C(=O)N[C@@H](CC(C)C)C(=O)N1CCC[C@H]1C(=O)N1CCC[C@H]1C(=O)N[C@H](C(=O)N[C@@H](CC(N)=O)C(=O)N[C@H](C(=O)NCC(=O)N[C@@H](CO)C(=O)N[C@@H](CCCNC(=N)N)C(=O)N[C@H](C(=O)N[C@@H](Cc1ccc(O)cc1)C(N)=O)[C@@H](C)O)C(C)C)[C@@H](C)O` [Example 21, N-alpha-[(S)-4-Carboxy-4-(19-carboxynonadecanoylamino)butyryl]-His-His-[His1,Glu14,His17,Arg35]-pramlintide] ({C20 diacid-γGlu}-HHHCNTATCATQRLAEFLHHSSNNFGPILPPTNVGSRTY-NH2; disulfide 4-9 (inferred)), for which the “ThT pH 4.0 lag time (h)” value (ThT fibrillation assay) is given as 1 h.

Consider `CC[C@H](C)[C@H](NC(=O)[C@@H]1CCCN1C(=O)CNC(=O)[C@H](Cc1ccccc1)NC(=O)[C@H](CC(N)=O)NC(=O)[C@H](CC(N)=O)NC(=O)[C@H](CO)NC(=O)[C@H](CO)NC(=O)[C@H](Cc1c[nH]cn1)NC(=O)[C@H](Cc1c[nH]cn1)NC(=O)[C@H](CC(C)C)NC(=O)[C@H](Cc1ccccc1)NC(=O)[C@H](CCC(=O)O)NC(=O)[C@H](C)NC(=O)[C@H](CC(C)C)NC(=O)[C@H](CCCNC(=N)N)NC(=O)[C@H](CCC(N)=O)NC(=O)[C@@H](NC(=O)[C@H](C)NC(=O)[C@@H]1CSSC[C@H](NC(=O)[C@H](Cc2c[nH]cn2)NC(=O)[C@H](Cc2c[nH]cn2)NC(=O)[C@H](Cc2c[nH]cn2)NC(=O)CC[C@H](NC(=O)CCCCCCCCCCCCCCCCCCC(=O)O)C(=O)O)C(=O)N[C@@H](CC(N)=O)C(=O)N[C@@H]([C@@H](C)O)C(=O)N[C@@H](C)C(=O)N[C@@H]([C@@H](C)O)C(=O)N1)[C@@H](C)O)C(=O)N[C@@H](CC(C)C)C(=O)N1CCC[C@H]1C(=O)N1CCC[C@H]1C(=O)N[C@H](C(=O)N[C@@H](CC(N)=O)C(=O)N[C@H](C(=O)NCC(=O)N[C@@H](CO)C(=O)N[C@@H](Cc1c[nH]cn1)C(=O)N[C@H](C(=O)N[C@@H](Cc1ccc(O)cc1)C(N)=O)[C@@H](C)O)C(C)C)[C@@H](C)O` [Example 31, N-alpha-[(S)-4-Carboxy-4-(19-carboxynonadecanoylamino)butyryl]-His-His-[His1,Glu14,His17,His35]-pramlintide] ({C20 diacid-γGlu}-HHHCNTATCATQRLAEFLHHSSNNFGPILPPTNVGSHTY-NH2; disulfide 4-9 (inferred); C-terminus assumed), for which, for the setting “ThT fibrillation assay”, the “ThT pH 4.0 lag time” value is given as over 45 h and the “ThT pH 4.0 lag time (h)” value is on record as over 45 h.

Take `CC[C@H](C)[C@H](NC(=O)[C@@H]1CCCN1C(=O)CNC(=O)[C@H](Cc1ccccc1)NC(=O)[C@H](CC(N)=O)NC(=O)[C@H](CC(N)=O)NC(=O)[C@H](CO)NC(=O)[C@H](CO)NC(=O)[C@H](Cc1c[nH]cn1)NC(=O)[C@H](Cc1c[nH]cn1)NC(=O)[C@H](CC(C)C)NC(=O)[C@H](Cc1ccccc1)NC(=O)[C@H](CCC(=O)O)NC(=O)[C@H](C)NC(=O)[C@H](CC(C)C)NC(=O)[C@H](CCCNC(=N)N)NC(=O)[C@H](CCC(N)=O)NC(=O)[C@@H](NC(=O)[C@H](C)NC(=O)[C@@H]1CSSC[C@H](NC(=O)[C@H](Cc2c[nH]cn2)NC(=O)[C@H](Cc2c[nH]cn2)NC(=O)[C@H](Cc2c[nH]cn2)NC(=O)CC[C@H](NC(=O)CCCCCCCCCCCCCCCCCCC(=O)O)C(=O)O)C(=O)N[C@@H](Cc2c[nH]cn2)C(=O)N[C@@H]([C@@H](C)O)C(=O)N[C@@H](C)C(=O)N[C@@H]([C@@H](C)O)C(=O)N1)[C@@H](C)O)C(=O)N[C@@H](CC(C)C)C(=O)N1CCC[C@H]1C(=O)N1CCC[C@H]1C(=O)N[C@H](C(=O)N[C@@H](CC(N)=O)C(=O)N[C@H](C(=O)NCC(=O)N[C@@H](CO)C(=O)N[C@@H](Cc1c[nH]cn1)C(=O)N[C@H](C(=O)N[C@@H](Cc1ccc(O)cc1)C(N)=O)[C@@H](C)O)C(C)C)[C@@H](C)O` [Example 32, N-alpha-[(S)-4-Carboxy-4-(19-carboxynonadecanoylamino)butyryl]-His-His-[His1,His3,Glu14,His17,His35]-pramlintide] ({C20 diacid-γGlu}-HHHCHTATCATQRLAEFLHHSSNNFGPILPPTNVGSHTY-NH2; disulfide 4-9 (inferred)): for the setting “ThT fibrillation assay”, the “ThT pH 4.0 lag time” value was over 45 h and the “ThT pH 4.0 lag time (h)” value was over 45 h.

In the case of `CC[C@H](C)[C@H](NC(=O)[C@@H]1CCCN1C(=O)CNC(=O)[C@H](Cc1ccccc1)NC(=O)[C@H](CC(N)=O)NC(=O)[C@H](CC(N)=O)NC(=O)[C@H](CO)NC(=O)[C@H](CO)NC(=O)[C@H](Cc1c[nH]cn1)NC(=O)[C@H](Cc1c[nH]cn1)NC(=O)[C@H](CC(C)C)NC(=O)[C@H](Cc1ccccc1)NC(=O)[C@H](CCC(=O)O)NC(=O)[C@H](C)NC(=O)[C@H](CC(C)C)NC(=O)[C@H](CCCNC(=N)N)NC(=O)[C@H](CCC(N)=O)NC(=O)[C@@H](NC(=O)[C@H](C)NC(=O)[C@@H]1CSSC[C@H](NC(=O)[C@H](Cc2c[nH]cn2)NC(=O)CC[C@H](NC(=O)CCCCCCCCCCCCCCCCC(=O)O)C(=O)O)C(=O)N[C@@H](CC(N)=O)C(=O)N[C@@H]([C@@H](C)O)C(=O)N[C@@H](C)C(=O)N[C@@H]([C@@H](C)O)C(=O)N1)[C@@H](C)O)C(=O)N[C@@H](CC(C)C)C(=O)N1CCC[C@H]1C(=O)N1CCC[C@H]1C(=O)N[C@H](C(=O)N[C@@H](CC(N)=O)C(=O)N[C@H](C(=O)NCC(=O)N[C@@H](CO)C(=O)N[C@@H](CC(N)=O)C(=O)N[C@H](C(=O)N[C@@H](Cc1ccc(O)cc1)C(N)=O)[C@@H](C)O)C(C)C)[C@@H](C)O` [Example 48, N-alpha-[(S)-4-Carboxy-4-(17-carboxyheptadecanoylamino)butyryl]-[His1,Glu14,His17]-pramlintide] ({C18 diacid-γGlu}-HCNTATCATQRLAEFLHHSSNNFGPILPPTNVGSNTY-NH2; disulfide 2-7 (inferred)), the “ThT pH 4.0 lag time (h)” value (ThT fibrillation assay) is 9 h.

With `CC[C@H](C)[C@H](NC(=O)[C@@H]1CCCN1C(=O)CNC(=O)[C@H](Cc1ccccc1)NC(=O)[C@H](CC(N)=O)NC(=O)[C@H](CC(N)=O)NC(=O)[C@H](CO)NC(=O)[C@H](CO)NC(=O)[C@H](Cc1c[nH]cn1)NC(=O)[C@H](CCCNC(=N)N)NC(=O)[C@H](CC(C)C)NC(=O)[C@H](Cc1ccccc1)NC(=O)[C@H](CCC(=O)O)NC(=O)[C@H](C)NC(=O)[C@H](CC(C)C)NC(=O)[C@H](CCCNC(=N)N)NC(=O)[C@H](CCC(N)=O)NC(=O)[C@@H](NC(=O)[C@H](C)NC(=O)[C@@H]1CSSC[C@H](NC(=O)[C@H](CCCCN)NC(=O)[C@H](CCC(=O)O)NC(=O)CC[C@H](NC(=O)CCCCCCCCCCCCCCCCCCC(=O)O)C(=O)O)C(=O)N[C@@H](CC(N)=O)C(=O)N[C@@H]([C@@H](C)O)C(=O)N[C@@H](C)C(=O)N[C@@H]([C@@H](C)O)C(=O)N1)[C@@H](C)O)C(=O)N[C@@H](CC(C)C)C(=O)N1CCC[C@H]1C(=O)N1CCC[C@H]1C(=O)N[C@H](C(=O)N[C@@H](CC(N)=O)C(=O)N[C@H](C(=O)NCC(=O)N[C@@H](CO)C(=O)N[C@@H](Cc1c[nH]cn1)C(=O)N[C@H](C(=O)N[C@@H](Cc1ccc(O)cc1)C(N)=O)[C@@H](C)O)C(C)C)[C@@H](C)O` [Example 58, N-alpha-[(S)-4-Carboxy-4-(19-carboxynonadecanoylamino)butyryl]-Glu-[Glu14,Arg17,His35]-pramlintide] ({C20 diacid-γGlu}-EKCNTATCATQRLAEFLRHSSNNFGPILPPTNVGSHTY-NH2; disulfide 3-8 (inferred); C-terminus assumed), the “ThT pH 4.0 lag time” value by setting is: (Table 8) over 45 h; (Table 9) over 45 h; (ThT fibrillation assay) over 45 h. For the same compound, the “ThT pH 4.0 lag time (h)” value (ThT fibrillation assay) is reported as over 45 h.

With `CC[C@H](C)[C@H](NC(=O)[C@@H]1CCCN1C(=O)CNC(=O)[C@H](Cc1ccccc1)NC(=O)[C@H](CC(N)=O)NC(=O)[C@H](CC(N)=O)NC(=O)[C@H](CO)NC(=O)[C@H](CO)NC(=O)[C@H](Cc1c[nH]cn1)NC(=O)[C@H](CCCNC(=N)N)NC(=O)[C@H](CC(C)C)NC(=O)[C@H](Cc1ccccc1)NC(=O)[C@H](CCC(=O)O)NC(=O)[C@H](C)NC(=O)[C@H](CC(C)C)NC(=O)[C@H](CCCNC(=N)N)NC(=O)[C@H](CCC(N)=O)NC(=O)[C@@H](NC(=O)[C@H](C)NC(=O)[C@@H]1CSSC[C@H](NC(=O)[C@H](CCCCN)NC(=O)CC[C@H](NC(=O)CCCCCCCCCCCCCCCCC(=O)O)C(=O)O)C(=O)N[C@@H](CC(N)=O)C(=O)N[C@@H]([C@@H](C)O)C(=O)N[C@@H](C)C(=O)N[C@@H]([C@@H](C)O)C(=O)N1)[C@@H](C)O)C(=O)N[C@@H](CC(C)C)C(=O)N1CCC[C@H]1C(=O)N1CCC[C@H]1C(=O)N[C@H](C(=O)N[C@@H](CC(N)=O)C(=O)N[C@H](C(=O)NCC(=O)N[C@@H](CO)C(=O)N[C@@H](Cc1c[nH]cn1)C(=O)N[C@H](C(=O)N[C@@H](Cc1ccc(O)cc1)C(N)=O)[C@@H](C)O)C(C)C)[C@@H](C)O` [Example 61, N-alpha-[(S)-4-Carboxy-4-(17-carboxyheptadecanoylamino)butyryl]-[Glu14,Arg17,His35]-pramlintide] ({C18 diacid-γGlu}-KCNTATCATQRLAEFLRHSSNNFGPILPPTNVGSHTY-NH2; disulfide 2-7 (inferred)), for the setting “ThT fibrillation assay”, the “ThT pH 4.0 lag time” value is reported as over 45 h and the “ThT pH 4.0 lag time (h)” value is recorded as over 45 h.
